Data as given in patent US20240226020A1 (AMGEN INC., priority 2021, published 2024).
“Also recorded” adds a separate entry of the source.

Key:
[1] = Compactibility and tabletability (radial tensile strength, compression pressure); assay type: physicochemical
Description: (§1) After compression, tablets were measured for their ejected weight, thickness and diameter. Tablets were then stored for minimally 48 hours to allow for complete viscoelastic relaxation. The recovered dimensions were measured prior to diametrical compression testing performed using the HB compaction simulator operating at a constant loading rate of 5 mm/min. The force required to cause diametrical failure was recorded and used to compute radial tensile strength values.
Compactibility and Tabletability: The ability of a powder bed to cohere into or to form a compact gives an indication of powder compactibility. This behavior is described as a plot of tablet radial tensile strength (RTS) as a function of tablet solid fraction (SF) (FIG. 12A). For understanding fundamental material behavior, it is advantageous to compare materials at similar levels of solid fraction. […] The compactibility of all three placebo blends can be classified as “low” because each blend has been previously dry granulated. Tabletability is another relevant parameter which is useful in identifying the pressure needed to achieve a specific tablet hardness or tensile strength. This behavior is described as a plot of tablet radial tensile strength (RTS) as a function of compaction pressure (FIG. 12B).

[2] = Water dispersion study: pharmacokinetics of 8×120 mg tablets versus tablets dispersed in water; assay type: in vivo, healthy subjects; details: plasma; for AUC(0-inf): human, oral, 960 mg, Geometric mean sotorasib AUCinf
Description: Doses were administered orally on Days 1 and 4 during the mornings after an overnight fast of at least 10 hours. A total of 13 subjects entered the study (7 subjects receiving treatment in the sequences of Treatment A followed by Treatment B; and 6 subjects receiving treatment in the sequences of Treatment B followed by Treatment A). Data for all subjects was included in the pharmacokinetic (PK) and safety analyses. […] PK parameters including AUClast, AUCinf, and Cmax were estimated and compared between Treatment A and Treatment B. The natural log-transformed PK parameters were analyzed using a mixed model. The model included treat, period, and sequence as fixed effect and subject nested within a sequence as a random effect. […] Additionally, the pooled estimate (across all treatments) of the within-subject coefficient of variation was calculated, and residual plots were produced to assess the adequacy of the model(s) fitted.

[3] = system: extracellular signal-regulated kinase (ERK); details: preclinical studies; cited from earlier work
[4] = Compressibility (tablet solid fraction as a function of compaction pressure); assay type: physicochemical
Description: as §1
Compressibility: The ability of a powder bed to be reduced in volume due to the application of an applied stress gives an indication of powder compressibility. This behavior is described in terms of tablet solid fraction as a function of compaction pressure (see Table 38). Interpretation of the data considers the change in solid fraction between two pressure conditions. The increased difference in SF at a high pressure and a low pressure is indicative of increased compressibility of the blend. […] Therefore, a 3:1 plastic to brittle diluent ratio, e.g., a 3:1 Avicel PH102 to lactose ratio, is preferred.

[5] = Water dispersion study: safety and tolerability; assay type: in vivo; details: healthy subjects
Description: Doses were administered orally on Days 1 and 4 during the mornings after an overnight fast of at least 10 hours. A total of 13 subjects entered the study (7 subjects receiving treatment in the sequences of Treatment A followed by Treatment B; and 6 subjects receiving treatment in the sequences of Treatment B followed by Treatment A). Data for all subjects was included in the pharmacokinetic (PK) and safety analyses. […] All events resolved by the end of the study.

C=CC(=O)N1CCN(c2nc(=O)n(-c3c(C)ccnc3C(C)C)c3nc(-c4c(O)cccc4F)c(F)cc23)[C@@H](C)C1 (atropisomer, axis not shown; (M)) [Sotorasib, 6-fluoro-7-(2-fluoro-6-hydroxyphenyl)-(1M)-1-[4-methyl-2-(propan-2-yl)pyridin-3-yl]-4-[(2S)-2-methyl-4-(prop-2-enoyl)piperazin-1-yl]pyrido[2,3-d]pyrimidin-2(1H)-one]
Assessment of compressibility and compactibility [1]: high levels of compressibility combined with very low levels of compactibility | solid fraction at a theoretical strength value of 2 MPa [1]: 0.85 | RTS (MPa) @ 0.85 SF ([1]; 0.85 SF): 1.59 MPa | RTS (MPa) @ 150 MPa ([1]; 150 MPa): 1.62 MPa | CP (MPa) @ RTS = 2 MPa ([1]; RTS = 2 MPa): 149.00 MPa | SF @ RTS = 2 MPa ([1]; RTS = 2 MPa): 0.85 | radial tensile strength ([1]; compressed to a peak pressure of 150 MPa): 1.62 MPa | radial tensile strength ([1]; compressed to an out of die solid fraction of 0.85): 1.59 MPa | median sotorasib tmax ([2]; 8×120 mg tablets (Formulation #8) dispersed in water (Treatment B), single oral dose, fasted): 1 h | AUC(0-inf) ([2]; administered as tablets (Treatment A)): 25300 ng·h/mL | AUC(0-inf) ([2]; administered as water dispersion (Treatment B)): 26400 ng·h/mL | phosphorylation of extracellular signal-regulated kinase (ERK) [3]: inhibited nearly all detectable phosphorylation | applied pressure required to produce a tablet with an out of die solid fraction of 0.85 [4]: approximately 145 MPa | Safety and tolerability ([5]; single doses of 960 mg as tablets dispersed in water and as tablets): safe and well tolerated; also recorded: safe and well-tolerated | Clinical laboratory evaluations, vital signs, 12-lead ECGs ([5]; single doses of 960 mg): no clinically significant findings | Serious adverse events ([5]; single doses of 960 mg): no serious adverse events | Treatment-emergent adverse events ([5]; single doses of 960 mg, all mild, related to sotorasib, resolved): Three treatment-emergent adverse events of constipation, nausea and vomiting
